In US7713971B2, “1,2,4-triazine derivatives, preparation and use thereof in human therapy” (Pierre Fabre Medicament, priority 2005, dated 2010):
Like-named read-outs stand apart in the source and are kept apart here.

Columns and labels:
human PPARα = target: T1, human PPARα (Homo sapiens, UniProt Q07869); assay: Reporter gene transactivation, hPPAR-GAL4 alpha; type: cell-based; conditions: transfected Cos-7 cells, Gal-4 luciferase reporter, 24 hours treatment
T1 construct: expressed in transfected cells; host or cells: Cos-7 cells (ATCC, CRL-1651)
T1 sequence (Q07869 239-466 limits assumed): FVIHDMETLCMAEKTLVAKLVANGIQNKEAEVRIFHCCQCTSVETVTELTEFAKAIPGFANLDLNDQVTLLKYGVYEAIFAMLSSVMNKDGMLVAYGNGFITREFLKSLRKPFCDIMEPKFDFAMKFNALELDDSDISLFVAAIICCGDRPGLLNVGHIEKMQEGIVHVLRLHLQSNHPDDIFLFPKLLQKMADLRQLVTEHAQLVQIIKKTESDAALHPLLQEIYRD

human PPARδ = target: T2, human PPARδ (Homo sapiens, UniProt Q03181); assay: Reporter gene transactivation, hPPAR-GAL4 delta; type: cell-based; conditions: transfected Cos-7 cells, Gal-4 luciferase reporter, 24 hours treatment
T2 construct: expressed in transfected cells; host or cells: Cos-7 cells (ATCC, CRL-1651)
T2 sequence (Q03181 211-439 limits assumed): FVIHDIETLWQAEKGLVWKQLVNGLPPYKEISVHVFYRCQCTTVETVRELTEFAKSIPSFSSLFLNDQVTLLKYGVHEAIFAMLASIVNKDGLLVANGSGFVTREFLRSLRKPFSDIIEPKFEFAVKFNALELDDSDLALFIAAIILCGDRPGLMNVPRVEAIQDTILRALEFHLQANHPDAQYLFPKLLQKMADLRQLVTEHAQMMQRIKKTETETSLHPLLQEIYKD

human PPARγ = target: T3, human PPARγ (Homo sapiens, UniProt P37231); assay: Reporter gene transactivation, hPPAR-GAL4 gamma; type: cell-based; conditions: transfected Cos-7 cells, Gal-4 luciferase reporter, 24 hours treatment
T3 construct: expressed in transfected cells; host or cells: Cos-7 cells (ATCC, CRL-1651)
T3 sequence (P37231 238-503 limits assumed): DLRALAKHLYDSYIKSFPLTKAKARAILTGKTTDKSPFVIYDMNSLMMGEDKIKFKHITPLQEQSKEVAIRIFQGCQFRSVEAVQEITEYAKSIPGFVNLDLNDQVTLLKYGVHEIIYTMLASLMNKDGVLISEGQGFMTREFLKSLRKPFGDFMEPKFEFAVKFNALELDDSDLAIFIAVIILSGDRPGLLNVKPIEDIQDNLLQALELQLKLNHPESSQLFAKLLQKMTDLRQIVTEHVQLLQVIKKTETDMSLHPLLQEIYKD

[1] = test system: insulin-resistant male rat (Ico: ZUCKER-fa/fa); assay: Normalization of metabolic parameters (cholesterol, plasma triglycerides) in insulin-resistant rat; type: in vivo; conditions: oral route, once per day for four days, Zucker fa/fa rat unfed 16-18 hours; for change in vivo at 10 mg/kg / change in vivo at 2.5 mg/kg: 96 h
Procedure: Normalization of metabolic parameters (cholesterol, plasma triglycerides) in an insulin-resistant male rat (Ico: ZUCKER-fa/fa), unfed for 16-18 hours, after treatment by oral route, once per day for four days, with the compounds to be evaluated or their administration vehicle.
These metabolic parameters are measured by spectrophotometry at the beginning and the end of each animal's treatment.

[2] = at 10 mg/kg, read-out: Plasma cholesterol
[3] = at 10 mg/kg, read-out: Plasma triglycerides
[4] = at 2.5 mg/kg, read-out: Plasma cholesterol
[5] = at 2.5 mg/kg, read-out: Plasma triglycerides

Structure (SMILES) | EC50 (human PPARα) [nM] | EC50 (human PPARδ) [nM] | EC50 (human PPARγ) [nM] | change in vivo at 10 mg/kg [1, 2] [%] | change in vivo at 10 mg/kg [1, 3] [%] | Plasma cholesterol ([1]; at 10 mg/kg) | change in vivo at 2.5 mg/kg [1, 4] [%] | change in vivo at 2.5 mg/kg [1, 5] [%] | Plasma triglycerides ([1]; at 10 mg/kg) | Plasma triglycerides ([1]; at 2.5 mg/kg)
CCCCCCCn1c(=O)c(NCCCOc2ccc(OC(C)(C)C(=O)OCC)cc2)nn(CCCC(F)(F)F)c1=O [Example 48, Ethyl 2-(4-{3-[4-heptyl-3,5-dioxo-2-(4,4,4-trifluoro-butyl)-2,3,4,5-tetrahydro-[1,2,4]triazin-6-ylamino]-propoxy}-phenoxy)-2-methyl-propionate] | 300 to 1000 | ~3000 | 300 to 1000 | – | – | – | – | – | – | –
CCOC(=O)C(C)(C)Oc1cccc(OCCCOc2nn(CCCC(F)(F)F)c(=O)n(CCCC(F)(F)F)c2=O)c1 [Example 35, Ethyl 2-(3-{3-[3,5-dioxo-2,4-bis-(4,4,4-trifluoro-butyl)-2,3,4,5-tetrahydro-[1,2,4]triazin-6-yloxy]-propoxy}-phenoxy)-2-methyl-propionate] | 30 to 100 | ~10000 | 3000 to 10000 | – | – | – | – | – | – | –
CCCCCCCn1nc(NCCOc2ccc(OC(C)(C)C(=O)OCC)cc2)c(=O)n(CCCCCCC)c1=O [Example 42, Ethyl 2-{4-[2-(2,4-diheptyl-3,5-dioxo-2,3,4,5-tetrahydro-[1,2,4]triazin-6-ylamino)-ethoxy]-phenoxy}-2-methyl-propionate] | ~1000 | 1000 to 3000 | > 10000 | – | – | – | – | – | – | –
CCCCCCCn1c(=O)c(NCCc2ccc(SC(C)(C)C(=O)OCC)cc2)nn(C)c1=O [Example 122, Ethyl 2-{4-[2-(4-heptyl-2-methyl-3,5-dioxo-2,3,4,5-tetrahydro-[1,2,4]triazin-6-ylamino)-ethyl]-phenylsulfanyl}-2-methyl-propionate] | ~300 | > 10000 | – | -22 | -35 | – | – | – | – | –
CCCCCCCn1nc(NCCc2ccc(OC(C)(C)C(=O)OCC)cc2)c(=O)n(Cc2ccccc2)c1=O [Example 109, Ethyl 2-{4-[2-(4 benzyl-2-heptyl-3,5-dioxo-2,3,4,5-tetrahydro-[1,2,4]triazin-6-ylamino)-ethyl]-phenoxy}-2-methyl-propionate] | ~1000 | 3000 to 10000 | – | – | – | – | – | – | – | –
CC(C)(Oc1ccc(C(=O)c2ccc(Cl)cc2)cc1)C(=O)O [Fenofibric acid, reference compound] | 16900 | > 100000 | – | – | – | – | – | – | – | –
CCOC(=O)C(C)(C)Oc1ccc(CCNc2nn(COCc3ccccc3)c(=O)n(COCc3ccccc3)c2=O)cc1 [Example 110, Ethyl 2-{4-[2-(2,4-bis-benzyloxymethyl-3,5-dioxo-2,3,4,5-tetrahydro-[1,2,4]triazin-6-ylamino)ethyl]-phenoxy}-2-methyl-propionate] | 1000 to 3000 | > 10000 | – | – | – | – | – | – | – | –
CCCCCCCn1c(=O)c(OCCCCCc2cccc(OC(C)(C)C(=O)OCC)c2)nn(C)c1=O [Example 17, Ethyl 2-{3-[5-(4-heptyl-2-methyl-3,5-dioxo-2,3,4,5-tetrahydro-[1,2,4]triazin-6-yloxy)-pentyl]-phenoxy}-2-methyl-propionate] | 300 to 1000 | – | ~300 | – | -37 | active at 10 | – | – | – | –
CCCCCCCn1nc(OCCCCCc2cccc(OC(C)(C)C(=O)OCC)c2)c(=O)n(CCCC)c1=O [Example 15, Ethyl 2-{3-[5-(4-butyl-2-heptyl-3,5-dioxo-2,3,4,5-tetrahydro-[1,2,4]triazin-6-yloxy)-pentyl]-phenoxy}-2-methyl-propionate] | 1 to 3 | – | 100 to 300 | -8 | -63 | – | -4 | -22 | – | –
CCOC(=O)C(C)(C)Oc1ccc(CCN(CCCc2ccccc2)c2nn(C)c(=O)n(C)c2=O)cc1 [Example 115, Ethyl 2-(4-{2-[(2,4-dimethyl-3,5-dioxo-2,3,4,5-tetrahydro-[1,2,4]triazin-6-yl)-(3-phenylpropyl)-amino]-ethyl}-phenoxy)-2-methyl-propionate] | ~3000 | > 10000 | – | – | – | – | – | – | – | –
CCCCCCCn1c(=O)c(NCCCCc2cccc(OC(C)(C)C(=O)OCC)c2)nn(CCCC(F)(F)F)c1=O [Example 85, Ethyl 2-(3-{4-[4-heptyl-3,5-dioxo-2-(4,4,4-trifluoro-butyl)-2,3,4,5-tetrahydro-[1,2,4]triazin-6-ylamino]-butyl}-phenoxy)-2-methyl-propionate] | ~30 | – | 1000 to 3000 | -21 | – | – | – | – | active at 10 mg/kg | –
CCCCCCCn1nc(NCCc2ccc(SC(C)(C)C(=O)O)cc2)c(=O)n(C)c1=O [Example 120, 2-{4-[2-(2-Heptyl-4-methyl-3,5-dioxo-2,3,4,5-tetrahydro-[1,2,4]triazin-6-ylamino)-ethyl]-phenylsulfanyl}-2-methyl-propionic Acid] | 300 to 1000 | – | 1000 to 3000 | -33 | -73 | – | -32 | -27 | – | –
CCCCCCCn1c(=O)c(NCCCc2cccc(OC(C)(C)C(=O)OCC)c2)nn(CCCC(F)(F)F)c1=O [Example 68, Ethyl 2-(3-{3-[4-heptyl-3,5-dioxo-2-(4,4,4-trifluoro-butyl)-2,3,4,5-tetrahydro-[1,2,4]triazin-6-ylamino]-propyl}-phenoxy)-2-methyl-propionate] | 100 to 300 | – | 3000 to 10000 | -21 | – | – | – | – | active at 10 mg/kg | –
Cn1nc(NCCCCc2cccc(OC(C)(C)C(=O)O)c2)c(=O)n(CCCC(F)(F)F)c1=O [Example 79, 2-Methyl-2-(3-{4-[2-methyl-3,5-dioxo-4-(4,4,4-trifluoro-butyl)-2,3,4,5-tetrahydro-[1,2,4]triazin-6-ylamino]-butyl}-phenoxy)-propionic Acid] | ~30 | – | 3000 to 10000 | – | – | – | -32 | -55 | – | –
CCOC(=O)C(C)(C)Oc1cccc(CCCCNc2nn(C)c(=O)n(CCCC(F)(F)F)c2=O)c1 [Example 77, Ethyl 2-methyl-2-(3-{4-[2-methyl-3,5-dioxo-4-(4,4,4-trifluoro-butyl)-2,3,4,5-tetrahydro-[1,2,4]triazin-6-ylamino]-butyl}-phenoxy)-propionate] | ~300 | – | 3000 to 10000 | -35 | – | – | -29 | – | active at 10 mg/kg | –
CCCCCCCn1nc(NCCCc2cccc(OC(C)(C)C(=O)OCC)c2)c(=O)n(Cc2ccccc2)c1=O [Example 72, Ethyl 2-{3-[3-(4-Benzyl-2-heptyl-3,5-dioxo-2,3,4,5-tetrahydro-[1,2,4]triazin-6-ylamino)-propyl]-phenoxy}-2-methyl-propionate] | 3000 to 10000 | – | 3000 to 10000 | -21 | – | – | – | – | inactive at 10 | –
CCOC(=O)C(C)(C)Sc1cccc(CCCCNc2nn(C)c(=O)n(CCCC(F)(F)F)c2=O)c1 [Example 95] | 1000 to 3000 | – | > 10000 | -40 | – | – | -18 | – | inactive at .10 | –
CCCCCCCn1c(=O)c(NCCc2ccc(OC(C)(C)C(=O)OCC)cc2)nn(C)c1=O [Example 106, Ethyl 2-{4-[2-(4-heptyl-2-methyl-3,5-dioxo-2,3,4,5-tetrahydro-[1,2,4]triazin-6-ylamino)-ethyl]-phenoxy}-2-methyl-propionate] | ~1000 | > 10000 | – | – | – | – | – | – | – | –
CCCCCCCn1nc(NCCc2ccc(SC(C)(C)C(=O)OCC)cc2)c(=O)n(C)c1=O [Example 119, Ethyl 2-{4-[2-(2-heptyl-4-methyl-3,5-dioxo-2,3,4,5-tetrahydro-[1,2,4]triazin-6-ylamino)-ethyl]-phenylsulfanyl}-2-methyl-propionate] | 300 | – | 300 | -32 | -29 | – | -21 | – | – | active at 2.5
CCCCCCCn1c(=O)c(NCCCOc2ccc(OC(C)(C)C(=O)OCC)cc2)nn(C)c1=O [Example 47, Ethyl 2-{4-[3-(4-heptyl-4-methyl-3,5-dioxo-2,3,4,5-tetrahydro-[1,2,4]triazin-6-ylamino)-propoxy]-phenoxy}-2-methyl-propionate] | ~300 | – | ~300 | -25 | -45 | – | – | – | – | –
